The values below come from US4602015A, “2-piperazinopyrimidine salt and pharmaceutical compositions containing it” (priority 1983, dated 1986).

Test [1] deals with rotational behaviour after unilateral lesion of the striatum. In words: rotational behaviour in lesioned mice, time course 60, 180 and 360 minutes. The format is in vivo, Female Charles River CD1 mice. As to conditions: Table III, mouse, oral, dose corresponding to 0.15 mg/kg free base, ** p < 0.01, ns not significant.
Test [2] shares this test system. In words: rotational behaviour in mice after unilateral 6-hydroxydopamine lesion of the striatum. To be noted: for Variation % of turns as compared to controls: Table II, mouse, oral, 1 h after administration, doses 0.15 (base), 0.18 (hydrochloride), 0.34 (napsilate) mg/kg = 0.15 mg/kg free base, ** p < 0.01, ns not significant. Type of test: in vivo, Female Charles River CD1 mice. An excerpt: (§1) The dopaminergic mechanism of the compound of the invention was studied in comparison with the corresponding free base and its hydrochloride by analysing the rotational behaviour in mice after unilateral lesion of the striatum (P. Protais et al., J. Pharmacol. 1976, 7, 251-255).
(§2) Female Charles River CD1 mice weighing 20-24 g were previously subjected to a unilateral lesion of the striatum by stereotaxic injection of 8 mcg/animal of 6-hydroxydopamine. A week later, the 2-(1-piperazinyl)-pyrimidine napsilate, the 2-(1-piperazinyl)pyrimidine hydrochloride and the free base were administered by oral route to groups of six mice at a dose corresponding to 0.15 mg/kg of free base. The number of turns was recorded, during 2 minutes, one hour after the administration of the three products. The turns ipsilateral to the lesion were plotted as positive values, the contralateral turns were plotted as negative values. The algebric sum of turns for each group of treated animals was compared to that of control animals treated with the vehicle (saline) only.

For test [3] the following is noted: H. W. Stewart et al., J. Org. Chem. 1953; cited from earlier work.
Test [4] relates to rotational behaviour after unilateral lesion of the striatum. Kind of test: rotational behaviour in lesioned mice, time course 60, 180 and 360 minutes. Type of test: in vivo, Female Charles River CD1 mice. To be noted: for Variation % of turns after 60 minutes: Table III, mouse, oral, dose corresponding to 0.15 mg/kg free base, ** p < 0.01, ns not significant.
From the text: as §1, §2
The dopaminergic action of the compound of the present invention has also been evaluated in the time in comparison with the corresponding free base and the hydrochloride thereof.

The subject of test [5] is prochlorperazine-induced catalepsy. Kind of test: antagonism of prochlorperazine-induced catalepsy (cork test, oral). The format is in vivo, Wistar male rats. To be noted: rat; for Prochlorperazine Catal. antag. ED50: 1 h before prochlorperazine 10 mg/kg s.c., interval in parentheses printed on next line: napsilate (5.0-6.4), base (12-45). As for the experimental part:
The antidepressive activity of the compound of the invention has been evaluated in the test of antagonism of prochlorperazine-induced catalepsy (K. Biziere et al., Arzneimittel Forschung, 1982, 32 (II), 824-831). The 2-(1-piperazinyl)pyrimidine napsilate and the corresponding free base, as reference compound, were administered orally to groups of 10 Wistar male rats weighing 220-240 g; at the same time control animals were treated with saline. One hour later, prochlorperazine was administered subcutaneously at a dose of 10 mg/kg. Five hours after this administration, the number of cataleptic animals was assessed by the cork test. According to this test the animals were placed with their forepaws on a stand formed by three superposed corks (11 cm total height) and forced to maintain this position for 20 seconds at least. The performances of each group of animals were compared with those of the controls having received the vehicle and prochlorperazine only.

The nature of test [6]: psychotropic activity (general statement). Type of test: in vivo.

With `c1cnc(N2CCNCC2)nc1` [2-(1-piperazinyl)pyrimidine base, 2-(1-piperazinyl)pyrimidine], in test [1], the “Variation % of turns after 180 minutes” value is listed as -62% and the “Variation % of turns after 360 minutes” value is -60%. In addition, the “Variation % of turns as compared to controls” value (“Variation % … to controls” for short) in test [2] is reported as -94%. In addition, the “effect on algebric sum of turns (in words)” value in test [2] (comment on Table II) is “significantly reduces the algebric sum of turns”. Moreover, the “analgesic or antifilarial activity (in words)” value in test [3] was “none of which has shown analgesic or antifilarial activity”. The “Variation % of turns after 60 minutes” value in test [4] is given as -94%. For the same compound, the “activity with time (in words)” value in test [4] (comment on Table III) is given as “tends to decrease with the time”. Further, the “Prochlorperazine Catal. antag. ED50” value in test [5] is listed as 24 mcmol/kg.

For the compound `Cl.c1cnc(N2CCNCC2)nc1` [2-(1-piperazinyl)pyrimidine hydrochloride], in test [1], the “Variation % of turns after 180 minutes” value is recorded as -28% and the “Variation % of turns after 360 minutes” value was -22%. Also, the “Variation % … to controls” value in test [2] is listed as -29%. Also, in test [2] (comment on Table II), the “dopaminergic activity (in words)” value was “nearly inactive” and the “effect on algebric sum of turns (in words)” value is “no significant effect”. In test [4], the “Variation % of turns after 60 minutes” value was -29%. Moreover, the “activity with time (in words)” value in test [4] (comment on Table III) was “inactive with the time too”.

In the case of `c1cnc(N2CCNCC2)nc1` [2-(1-piperazinyl)pyrimidine napsilate, 2-(1-piperazinyl)pyrimidine 2-naphtalenesulfonate], in test [1], the “Variation % of turns after 180 minutes” value was -126% and the “Variation % of turns after 360 minutes” value is on record as -147%. For the same compound, in test [2], the “Variation % … to controls” value was -117%. In test [2] (comment on Table II), the “dopaminergic activity (in words)” value is “dopaminergic activity higher than that of the free base”. Also, the “negative variation of turns” value in test [2] (comment on Table II, contralateral turns exceed ipsilateral turns) is reported as “higher than 100%”. The “psychotropic activity (in words)” value in test [6] (dopaminergic mechanism, antipsychotic, antidepressive, tranquillizing-sedative) is reported as “very good psychotropic activity”. In addition, the “activity versus free base and hydrochloride (in words)” value in test [6] (in the absolute sense) is on record as “much more active”. Also, the “duration of activity (in words)” value in test [6] (in vivo) is “long-lasting and increases with time”. In test [4], the “Variation % of turns after 60 minutes” value is recorded as -117%. For the same compound, the “activity with time (in words)” value in test [4] (comment on Table III) was “increases significantly with the time”. Besides, in test [4] (comment on Table III, versus free base and hydrochloride), the “potency versus reference products (in words)” value is reported as “more potent than the reference products”. In addition, the “Prochlorperazine Catal. antag. ED50” value in test [5] turned out to be 5.7 mcmol/kg. In test [5] (ratio versus free base), the “oral activity relative to corresponding free base (times more active)” value is on record as “about 4 times”.
